SMILES strings stand for the structures.

What all share (type): cell-based
In one data set the target is hROMK (human Kir1.1) (Homo sapiens (Human), UniProt P48048). The data set is described as follows: Thallium Flux Assay (FluxOR, CHO T-Rex hROMK stable cell line). As to conditions: CHO T-Rex hROMK cells, 10-point concentration response curve; read-out: Human ROMK TH Flux IC50.
The next data set addresses hROMK (Homo sapiens (Human), UniProt P48048). The data set is described as follows: ROMK Manual Patch Clamp Assay. As to conditions: whole-cell manual patch clamp, hROMK current; read-out: ROMK EP IC50.
The target in the next data set is hERG channels (Homo sapiens (Human), UniProt Q12809). The data set is described as follows: hERG Manual Patch Clamp Assay (HEK 293 cells stably expressing hERG channels). As to conditions: human, HEK 293 cells stably expressing hERG channels, pH 7.4. (In general: Block of hERG is tested as a sign of cardiac risk.)
Sequence of hERG channels (Q12809 whole entry): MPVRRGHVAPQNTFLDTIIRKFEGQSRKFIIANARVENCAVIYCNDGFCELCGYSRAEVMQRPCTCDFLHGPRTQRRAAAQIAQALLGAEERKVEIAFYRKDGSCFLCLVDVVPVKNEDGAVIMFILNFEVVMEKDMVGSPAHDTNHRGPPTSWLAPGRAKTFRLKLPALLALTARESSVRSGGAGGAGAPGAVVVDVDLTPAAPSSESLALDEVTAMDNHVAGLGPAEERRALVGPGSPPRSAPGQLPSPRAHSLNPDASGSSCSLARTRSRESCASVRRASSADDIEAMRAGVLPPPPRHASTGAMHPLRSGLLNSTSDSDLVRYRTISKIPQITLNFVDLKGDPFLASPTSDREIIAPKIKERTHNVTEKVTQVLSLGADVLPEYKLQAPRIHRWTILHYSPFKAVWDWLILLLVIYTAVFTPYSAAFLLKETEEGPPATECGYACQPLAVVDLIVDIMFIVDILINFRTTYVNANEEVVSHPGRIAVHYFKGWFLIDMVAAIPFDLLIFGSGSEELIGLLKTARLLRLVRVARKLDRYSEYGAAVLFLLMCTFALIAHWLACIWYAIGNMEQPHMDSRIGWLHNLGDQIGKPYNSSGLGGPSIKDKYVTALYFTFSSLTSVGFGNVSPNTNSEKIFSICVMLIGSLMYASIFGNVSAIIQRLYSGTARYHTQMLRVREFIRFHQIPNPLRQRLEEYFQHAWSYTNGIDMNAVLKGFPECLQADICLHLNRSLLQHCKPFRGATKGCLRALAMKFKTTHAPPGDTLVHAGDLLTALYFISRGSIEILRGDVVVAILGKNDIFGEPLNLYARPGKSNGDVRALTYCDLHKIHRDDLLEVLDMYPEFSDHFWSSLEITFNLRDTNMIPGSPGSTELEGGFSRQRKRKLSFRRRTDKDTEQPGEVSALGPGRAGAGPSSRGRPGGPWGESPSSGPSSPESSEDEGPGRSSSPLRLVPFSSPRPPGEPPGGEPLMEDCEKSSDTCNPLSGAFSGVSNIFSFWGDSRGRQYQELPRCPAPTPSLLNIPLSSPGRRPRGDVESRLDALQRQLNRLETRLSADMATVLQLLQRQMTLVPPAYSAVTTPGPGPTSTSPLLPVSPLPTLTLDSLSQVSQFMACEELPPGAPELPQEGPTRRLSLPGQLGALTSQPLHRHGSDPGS

Sequence of hROMK (human Kir1.1) (P48048 whole entry): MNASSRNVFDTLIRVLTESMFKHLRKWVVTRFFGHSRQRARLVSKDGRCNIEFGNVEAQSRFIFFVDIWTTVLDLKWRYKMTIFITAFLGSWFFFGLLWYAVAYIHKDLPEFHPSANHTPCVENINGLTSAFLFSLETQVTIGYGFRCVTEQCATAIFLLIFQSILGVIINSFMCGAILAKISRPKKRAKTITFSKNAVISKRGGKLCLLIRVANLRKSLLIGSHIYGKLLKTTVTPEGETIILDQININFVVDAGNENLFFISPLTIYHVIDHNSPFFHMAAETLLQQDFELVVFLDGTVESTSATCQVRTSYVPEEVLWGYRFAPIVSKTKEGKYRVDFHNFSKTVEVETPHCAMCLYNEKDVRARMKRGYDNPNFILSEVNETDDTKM
Sequence of hROMK (P48048 whole entry): as above
Procedure for hERG channels: hERG electrophysiology assay: The experimental compounds were assessed for hERG activity on HEK 293 cells stably expressing hERG channels using patch clamp technique. Coverslips plated with hERG expressing cells were placed in the experimental chamber and were perfused with a solution composed of (in mM): 140 NaCl, 4 KCl, 1.8 CaCl2), 1 MgCl2, 10 Glucose, 10 HEPES (pH 7.4, NaOH) at room temperature. Borosilicate patch pipettes had tip resistances of 2-4 Mohms when filled with an internal solution containing: 130 KCl, 1 MgCl2, 1 CaCl2), 10 EGTA, 10 HEPES, 5 ATP-K2 (pH 7.2, KOH). The cells were clamped at −80 mV in whole cell configuration using an Axopatch 200B (Axon instruments, Union City, Calif.) patch clamp amplifier controlled by pClamp (Axon instruments) software. Upon formation of a gigaseal, the following voltage protocol was repeatedly (0.05 Hz) applied to record tail currents: depolarization step from −80 mV to +20 mV for 2 seconds followed by a hyperpolarization step to −65 mV (3 seconds) to elicit tail currents. Compounds were applied after stabilization of tail current. First, tail currents were recorded in presence of extracellular solution alone (control) and subsequently, in extracellular solution containing increasing compound concentrations. Each compound concentration was applied for 2-5 minutes. The percentage inhibition at each concentration was calculated as reduction in peak tail current with respect to the peak tail current recorded in the presence of control solution. Data analysis was performed in a custom made template. The percent inhibitions at different concentrations were plotted to obtain a concentration response curve, which was subsequently fitted with a four parameter equation to calculate hERG IC50 value.
A lower hERG % Inhibition value indicates less inhibition of the hERG current
Procedure for hROMK (human Kir1.1): Solutions and reagents: Thallium flux assay was performed using FluxOR kit (F10017, Life Technologies). Loading buffer, assay buffer and stimulus buffer were prepared using kit components.
To prepare 10 ml of loading buffer: 10 μl of FluxOR dye (reconstituted in DMSO) was first added to 100 μl of powerload concentrate and this mix along with 100 μl of Probenicid (100×) was then added to 9.79 ml of HBSS. […] Stimulus buffer was composed of 15 mM Tl2SO4, 0.75 mM K2SO4 in FluxOR chloride free buffer (diluted to 1× using deionized water). The final concentration of Tl2SO4 and K2SO4 in the assay plate was 3 mM and 0.15 mM, respectively.
Plating and induction of cells: The CHO T-Rex hROMK (human Kir1.1) stable cell line was maintained in Ham's F12 media supplemented with 10% FBS, 1% Penicillin-Streptomycin, 500 μg/ml Zeocin and 10 μg/ml Blasticidin at 37° C. in a 5% CO2 incubator. […] The cell suspension was centrifuged at 1200 rpm for 5 min. After discarding the supernatant, the cells were resuspended in fresh growth media and cell concentration was determined using a hemocytometer. […] The assay plate was kept at 37° C. in a 5% CO2 incubator.
Assay protocol: On the day of experiment, media was removed and loading buffer was added (30 μl/well) to the assay plate. The cells were incubated in the loading buffer for 30 minutes at 37° C. The loading buffer was then replaced by assay buffer (30 μl/well) followed by addition of test compounds or controls. […] Each well was read for 90 sec at 2 sec interval and the stimulus buffer was added after 20 seconds of baseline recording. The final DMSO concentration was either 0.5 or 1% in the assay plate. Positive and negative controls were defined by addition of DMSO or 3 μM of a standard ROMK inhibitor, respectively, to the wells instead of a test compound.
A 10-point concentration response curve was used to estimate the IC50 value of test compounds.

The term IC50 denotes the point on the concentration scale where inhibition reaches its midpoint. Broadly, the inhibition is the share of the control response that was lost under treatment. Consider `COc1cc(-c2cc(CNC[C@H](O)c3ccc4c(c3C)COC4=O)on2)ncc1C#N` [Example 137, (R)-6-(5-(((2-hydroxy-2-(4-methyl-1-oxo-1,3-dihydroisobenzofuran-5-yl)ethyl)amino)methyl)isoxazol-3-yl)-4-methoxynicotinonitrile], for which the concentration for half-maximal inhibition (IC50) at hROMK (human Kir1.1) amounted to 35 nM; on hROMK, 26 nM. Also, on hERG channels, the inhibition at 1 µM was found to be 7.6%.
For `COc1cc(-n2cc(CNC[C@H](O)c3ccc4c(c3C)COC4=O)nn2)ncc1C#N` [Example 138, (R)-6-(4-(((2-hydroxy-2-(4-methyl-1-oxo-1,3-dihydroisobenzofuran-5-yl)ethyl)amino)methyl)-1H-1,2,3-triazol-1-yl)-4-methoxynicotinonitrile] the same measures were 43 nM, 18 nM and 10%.
For `Cc1c([C@@H](O)CNCc2cn(-c3ccc4oc(=O)n(C)c4c3)nn2)ccc2c1COC2=O` [Example 139, (R)-5-(4-(((2-hydroxy-2-(4-methyl-1-oxo-1,3-dihydroisobenzofuran-5-yl)ethyl)amino)methyl)-1H-1,2,3-triazol-1-yl)-3-methylbenzo[d]oxazol-2(3H)-one] the same measures were 55 nM, 24 nM and 5.9%.
With `Cc1cc(-c2cc(CNC[C@H](O)c3ccc4c(c3C)COC4=O)on2)ncc1C#N` [Example 140, (R)-6-(5-(((2-hydroxy-2-(4-methyl-1-oxo-1,3-dihydroisobenzofuran-5-yl)ethyl)amino)methyl)isoxazol-3-yl)-4-methylnicotinonitrile], the IC50 is 56 nM at hROMK (human Kir1.1) and 16 nM at hROMK. For the same compound, on hERG channels, the inhibition at 1 µM turned out to be 8.6%.
Regarding `Cc1c([C@@H](O)CNCc2ccc(-n3cc(C#N)cn3)nc2)ccc2c1COC2=O` [Example 177], the values for the IC50 on hROMK (human Kir1.1) and at hROMK were 0.57 nM and 0.15 nM, respectively. This compound also displayed an inhibition at 1 µM against hERG channels of 98%.
Taken in the same sequence, the figures for `Cc1nn(-c2ccc(CNC[C@H](O)c3ccc4c(c3C)COC4=O)cn2)cc1C#N` [Example 178, (R)-1-(5-(((2-hydroxy-2-(4-methyl-1-oxo-1,3-dihydroisobenzofuran-5-yl)ethyl)amino)methyl)pyridin-2-yl)-3-methyl-1H-pyrazole-4-carbonitrile] were 3.6 nM, 2.1 nM and 36%.

Source of the values: patent US10723723B2, “Substituted bicycle heterocyclic derivatives useful as ROMK channel inhibitors” (BRISTOL-MYERS SQUIBB COMPANY, priority 2016, dated 2020).
